pKi: −log10 of the molar value. Where “and” joins values, the source holds several entries; their conditions need not be identical. Equal values may be shown once. Entries after “also recorded” stand apart in the source; their conditions may differ.
Legend:
SERT = SERT (Rattus norvegicus, UniProt P31652); assay: SERT binding assay, [3H]citalopram, rat brain stem membranes; settings: DAT versus SERT Ki
σ1 receptor = σ1 receptor (Cavia porcellus, UniProt Q60492); assay: σ1 receptor binding assay, [3H]; set-up: species or system guinea pig; settings: for selectivity for σ1R over DAT and SERT (in words): σ1R versus monoamine transporters
DAT = DAT (Rattus norvegicus, UniProt P23977); assay: DAT binding assay, [3H]WIN 35,428, rat striatum membranes; settings: for DAT Ki values (in words): terminal piperazine amine changed to amide
hERG = hERG (Homo sapiens, UniProt Q12809); assay: hERG current block; type: cell-based; settings: hERG IC50 over DAT Ki
[1] = Off-target binding interactions; settings: concentration of 100 nM
[2] = Phase I metabolic stability in mouse liver microsomes; type: in vitro ADME; settings: for phase I metabolic stability (in words): mouse liver microsomes, 60 min; for compound remaining: mouse microsomes fortified with NADPH, 60 min (1 h)
DAT Y156F mutant = DAT Y156F mutant (Homo sapiens, UniProt Q01959, Y156F); type: binding; settings: read-out: Y156F Ki, COS7 cells, mean [SE interval]
[3] = Metabolic stability in human liver microsomes; type: in vitro ADME
mouse locomotion = assay: Locomotor activity in mice; type: in vivo; settings: i.p., 2 h session, cocaine 3-30 mg/kg, 14a 1-30 mg/kg, 14b/14c 1-10 mg/kg

DAT, sequence (P23977 whole entry): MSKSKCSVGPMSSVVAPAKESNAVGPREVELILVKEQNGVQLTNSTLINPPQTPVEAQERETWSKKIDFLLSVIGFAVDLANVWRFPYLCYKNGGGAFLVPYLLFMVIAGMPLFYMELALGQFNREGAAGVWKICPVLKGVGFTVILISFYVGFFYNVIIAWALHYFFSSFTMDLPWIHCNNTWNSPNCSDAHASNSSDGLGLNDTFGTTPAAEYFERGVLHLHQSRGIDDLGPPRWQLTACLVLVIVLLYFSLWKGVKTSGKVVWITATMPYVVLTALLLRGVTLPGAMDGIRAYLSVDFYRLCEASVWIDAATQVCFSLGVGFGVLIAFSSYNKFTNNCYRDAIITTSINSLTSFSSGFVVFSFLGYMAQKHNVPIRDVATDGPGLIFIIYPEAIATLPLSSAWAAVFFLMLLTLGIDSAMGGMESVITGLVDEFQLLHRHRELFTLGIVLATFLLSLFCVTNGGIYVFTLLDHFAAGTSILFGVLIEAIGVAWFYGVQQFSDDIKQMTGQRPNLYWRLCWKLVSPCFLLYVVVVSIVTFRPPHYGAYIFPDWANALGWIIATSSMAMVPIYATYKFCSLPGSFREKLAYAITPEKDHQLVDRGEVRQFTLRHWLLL
SERT, sequence (P31652 whole entry): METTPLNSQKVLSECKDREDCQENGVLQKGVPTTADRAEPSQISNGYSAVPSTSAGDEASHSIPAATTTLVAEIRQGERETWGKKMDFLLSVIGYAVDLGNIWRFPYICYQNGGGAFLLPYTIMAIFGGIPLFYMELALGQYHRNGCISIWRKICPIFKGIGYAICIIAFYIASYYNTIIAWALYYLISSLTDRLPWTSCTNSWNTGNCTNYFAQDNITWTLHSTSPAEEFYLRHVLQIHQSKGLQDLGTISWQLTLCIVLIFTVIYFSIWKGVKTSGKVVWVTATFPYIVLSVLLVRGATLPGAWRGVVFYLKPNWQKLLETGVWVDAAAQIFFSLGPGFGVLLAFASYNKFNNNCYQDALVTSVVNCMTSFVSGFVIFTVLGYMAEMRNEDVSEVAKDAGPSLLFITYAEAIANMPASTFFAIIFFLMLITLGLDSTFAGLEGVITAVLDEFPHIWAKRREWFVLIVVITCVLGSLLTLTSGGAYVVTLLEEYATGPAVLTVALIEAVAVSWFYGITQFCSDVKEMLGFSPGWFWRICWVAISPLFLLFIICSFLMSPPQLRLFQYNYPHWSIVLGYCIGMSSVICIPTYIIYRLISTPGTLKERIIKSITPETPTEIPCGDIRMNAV
σ1 receptor, sequence (Q60492 whole entry): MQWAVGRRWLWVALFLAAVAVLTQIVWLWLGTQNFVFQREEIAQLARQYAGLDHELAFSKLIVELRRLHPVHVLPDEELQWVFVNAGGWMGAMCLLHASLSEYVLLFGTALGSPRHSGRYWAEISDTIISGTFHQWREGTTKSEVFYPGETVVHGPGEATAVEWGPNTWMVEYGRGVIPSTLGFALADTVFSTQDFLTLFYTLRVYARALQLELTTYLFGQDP
hERG, sequence (Q12809 whole entry): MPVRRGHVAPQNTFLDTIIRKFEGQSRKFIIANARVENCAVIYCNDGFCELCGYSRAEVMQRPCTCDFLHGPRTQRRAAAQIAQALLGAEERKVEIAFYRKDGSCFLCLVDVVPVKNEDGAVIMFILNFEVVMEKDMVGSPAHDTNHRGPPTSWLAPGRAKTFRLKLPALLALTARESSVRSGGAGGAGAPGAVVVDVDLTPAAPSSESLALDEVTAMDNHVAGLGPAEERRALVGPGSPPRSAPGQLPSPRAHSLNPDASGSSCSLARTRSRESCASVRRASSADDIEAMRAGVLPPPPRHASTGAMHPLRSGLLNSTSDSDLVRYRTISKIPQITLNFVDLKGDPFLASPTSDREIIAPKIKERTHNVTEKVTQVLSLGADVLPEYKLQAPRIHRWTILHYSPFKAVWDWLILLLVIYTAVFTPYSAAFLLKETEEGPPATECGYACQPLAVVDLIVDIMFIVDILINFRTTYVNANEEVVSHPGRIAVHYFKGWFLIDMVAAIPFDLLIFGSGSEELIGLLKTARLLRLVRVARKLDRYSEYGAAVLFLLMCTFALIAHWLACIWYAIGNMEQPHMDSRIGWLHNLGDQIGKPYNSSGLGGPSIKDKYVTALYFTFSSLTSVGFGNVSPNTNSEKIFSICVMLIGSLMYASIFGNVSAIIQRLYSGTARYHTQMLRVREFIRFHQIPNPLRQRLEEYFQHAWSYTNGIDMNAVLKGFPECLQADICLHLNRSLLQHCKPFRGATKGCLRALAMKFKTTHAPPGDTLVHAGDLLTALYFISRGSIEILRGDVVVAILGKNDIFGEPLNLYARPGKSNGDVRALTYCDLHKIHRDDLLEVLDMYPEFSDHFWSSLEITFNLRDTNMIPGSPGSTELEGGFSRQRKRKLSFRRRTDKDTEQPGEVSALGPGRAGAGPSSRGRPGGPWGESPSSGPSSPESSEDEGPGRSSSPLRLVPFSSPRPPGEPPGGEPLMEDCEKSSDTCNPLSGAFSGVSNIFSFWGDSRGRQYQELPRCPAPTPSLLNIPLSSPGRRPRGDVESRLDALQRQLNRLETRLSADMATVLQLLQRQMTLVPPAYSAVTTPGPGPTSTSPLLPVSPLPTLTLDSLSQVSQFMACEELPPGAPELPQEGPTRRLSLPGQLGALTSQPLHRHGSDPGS
DAT Y156F mutant, sequence (Q01959 whole entry Y156F): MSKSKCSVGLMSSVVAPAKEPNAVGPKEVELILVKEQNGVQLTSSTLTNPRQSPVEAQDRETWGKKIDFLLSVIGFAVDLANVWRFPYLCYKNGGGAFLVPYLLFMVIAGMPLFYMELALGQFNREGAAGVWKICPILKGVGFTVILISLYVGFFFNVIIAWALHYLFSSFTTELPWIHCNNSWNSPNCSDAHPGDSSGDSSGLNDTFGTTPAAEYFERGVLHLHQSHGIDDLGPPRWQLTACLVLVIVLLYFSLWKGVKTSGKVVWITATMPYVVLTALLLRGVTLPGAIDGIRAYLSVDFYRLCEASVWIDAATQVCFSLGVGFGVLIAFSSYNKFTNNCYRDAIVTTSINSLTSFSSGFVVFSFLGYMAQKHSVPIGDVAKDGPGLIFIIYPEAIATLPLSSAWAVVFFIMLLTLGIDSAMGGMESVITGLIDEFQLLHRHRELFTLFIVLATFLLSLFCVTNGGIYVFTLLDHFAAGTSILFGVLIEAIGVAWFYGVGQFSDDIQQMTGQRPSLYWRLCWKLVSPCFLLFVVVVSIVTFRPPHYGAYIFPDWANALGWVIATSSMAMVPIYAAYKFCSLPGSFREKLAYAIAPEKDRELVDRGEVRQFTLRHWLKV

Compound: 1-(4-(2-((Bis(4-fluorophenyl)methyl)thio)ethyl)piperazin-1-yl)-2-phenylethan-1-one [8f]
- selectivity for DAT over SERT (in words) (SERT): equivalent
- selectivity for σ1R over DAT and SERT (in words) (σ1 receptor): σ1R selective
- DAT Ki values (in words) (DAT): low micromolar range

Compound: CC(O)CN1CCN(CCSC(c2ccc(F)cc2)c2ccc(F)cc2)CC1 (stereo not shown) [3a, reference compound]
- hERG/DAT affinity ratio (hERG): 3

Compound: CC(O)CN1CCN(CC[S+]([O-])C(c2ccc(F)cc2)c2ccc(F)cc2)CC1 (stereo not shown) [3b, 1-(4-(2-((bis(4-fluorophenyl)methyl)sulfinyl)ethyl)-piperazin-1-yl)-propan-2-ol, reference compound]
- off-target interactions [1]: no significant interactions

Compound: OC(Cc1ccc(F)cc1)CN1CCN(CCSC(c2ccc(F)cc2)c2ccc(F)cc2)CC1 (stereo not shown) [8a, 1-(4-(2-((Bis(4-fluorophenyl)methyl)thio)ethyl)piperazin-1-yl)-3-(4-fluorophenyl)propan-2-ol]
- phase I metabolic stability (in words) [2]: almost no compound present after 60 min

Compound: O[C@@H](Cc1ccccc1)CN1CCN(CCSC(c2ccc(F)cc2)c2ccc(F)cc2)CC1 [8d, (S)-1-(4-(2-((Bis(4-fluorophenyl)methyl)thio)ethyl)piperazin-1-yl)-3-phenylpropan-2-ol]
- phase I metabolic stability (in words) [2]: almost no compound present after 60 min

Compound: O[C@H](Cc1ccccc1)CN1CCN(CCSC(c2ccc(F)cc2)c2ccc(F)cc2)CC1 [8e, (R)-1-(4-(2-((Bis(4-fluorophenyl)methyl)thio)ethyl)piperazin-1-yl)-3-phenylpropan-2-ol]
- phase I metabolic stability (in words) [2]: almost no compound present after 60 min

Compound: CC(=O)CN1CCN(CCSC(c2ccc(F)cc2)c2ccc(F)cc2)CC1 [8g, 1-(4-(2-((Bis(4-fluorophenyl)methyl)thio)ethyl)piperazin-1-yl)propan-2-one]
- selectivity for σ1R over DAT and SERT (in words) (σ1 receptor): σ1R selective
- decrease of DAT affinity compared to 3a (DAT; 2-propanol oxidised to 2-propanone): ~ 5 fold

Compound: CCC(=O)N1CCN(CCSC(c2ccc(F)cc2)c2ccc(F)cc2)CC1 [11d, 1-(4-(2-((Bis(4-fluorophenyl)methyl)thio)ethyl)piperazin-1-yl)propan-1-one]
- selectivity for DAT over SERT (in words) (SERT): equivalent
- selectivity for σ1R over DAT and SERT (in words) (σ1 receptor): σ1R selective
- DAT Ki values (in words) (DAT): low micromolar range

Compound: C[C@H](O)CN1CCN(CC[S+]([O-])C(c2ccc(F)cc2)c2ccc(F)cc2)CC1 (stereo partly drawn) [12a, (S)-1-(4-(2-((Bis(4-fluorophenyl)methyl)sulfinyl)ethyl)piperazin-1-yl)propan-2-ol]
- phase I metabolic stability (in words) [2]: exceptional and similar metabolic stability

Compound: C[C@@H](O)CN1CCN(CC[S+]([O-])C(c2ccc(F)cc2)c2ccc(F)cc2)CC1 (stereo partly drawn) [12b, (R)-1-(4-(2-((Bis(4-fluorophenyl)methyl)sulfinyl)ethyl)piperazin-1-yl)propan-2-ol]
- phase I metabolic stability (in words) [2]: exceptional and similar metabolic stability

Compound: [O-][S+](CCCN1CCN(CCCc2ccccc2)CC1)C(c1ccc(F)cc1)c1ccc(F)cc1 (stereo not shown) [12c, 1-(3-((Bis(4-fluorophenyl)methyl)sulfinyl)propyl)-4-(3-phenylpropyl)piperazine]
- phase I metabolic stability (in words) [2]: almost no compound present after 60 min

Compound: CC(O)CN1[C@H](C)CN(CCSC(c2ccc(F)cc2)c2ccc(F)cc2)C[C@@H]1C (stereo partly drawn) [14a, 1-(4-(2-((Bis(4-fluorophenyl)methyl)thio)ethyl)-2,6-cis-dimethylpiperazin-1-yl)propan-2-ol]
- off-target interactions [1]: no significant interactions
- pKi (DAT Y156F mutant): 6.57
- metabolic stability (in words) [3]: moderate metabolic stability
- higher binding affinity at σ1 receptors than at DAT (σ1 receptor; σ1 versus DAT): ~ 4 fold
- locomotor (ambulatory) activity, maximum distance traveled in 30 min (mouse locomotion): not significantly different than vehicle; also recorded: only moderate locomotor stimulation

Compound: CC(O)CN1[C@H](C)CN(CC[S+]([O-])C(c2ccc(F)cc2)c2ccc(F)cc2)C[C@@H]1C (stereo partly drawn) [15a, 1-(4-(2-((Bis(4-fluorophenyl)methyl)sulfinyl)ethyl)-2,6-cis-dimethylpiperazin-1-yl)propan-2-ol]
- off-target interactions [1]: no significant interactions
- hERG/DAT affinity ratio (hERG): 30
- compound remaining [2]: 30–44%

Compound: C[C@@H]1CN(CC[S+]([O-])C(c2ccc(F)cc2)c2ccc(F)cc2)C[C@H](C)N1CC(O)Cc1ccccc1 (stereo partly drawn) [15b, 1-(4-(2-((Bis(4-fluorophenyl)methyl)sulfinyl)ethyl)-2,6-cis-dimethylpiperazin-1-yl)-3-phenylpropan-2-ol]
- off-target interactions [1]: no significant interactions
- phase I metabolic stability (in words) [2]: almost no compound present after 60 min

Compound: OC(CN1CCC2(CCN(CCSC(c3ccc(F)cc3)c3ccc(F)cc3)CC2)C1)c1ccccc1 (stereo not shown) [18b, 2-(8-(2-((Bis(4-fluorophenyl)methyl)thio)ethyl)-2,8-diazaspiro[4.5]decan-2-yl)-1-phenylethan-1-ol]
- selectivity for DAT over SERT (in words) (SERT): not selective for DAT over SERT; also recorded: equivalent
- selectivity for σ1R over DAT and SERT (in words) (σ1 receptor): binding preference for σ1R
- compound remaining [2]: 30–44% and 44%

Compound: CC(O)CN1CCC2(CCN(CC[S+]([O-])C(c3ccc(F)cc3)c3ccc(F)cc3)CC2)C1 (stereo not shown) [compound 19, 1-(8-(2-((Bis(4-fluorophenyl)methyl)sulfinyl)ethyl)-2,8-diazaspiro[4.5]decan-2-yl)propan-2-ol]
- selectivity for DAT over SERT (in words) (SERT): not selective for DAT over SERT; also recorded: equivalent
- selectivity for σ1R over DAT and SERT (in words) (σ1 receptor): binding preference for σ1R
